# Data as given in patent publication US20100331305A1, “OXO-HETEROCYCLE FUSED PYRIMIDINE COMPOUNDS, COMPOSITIONS AND METHODS OF USE” (Genentech, Inc., priority 2009, published 2010).
# Tests used:
# [1] = target: mTOR enzyme (mTOR(1360-2549)+GBL) (Homo sapiens, UniProt P42345); experiment: In vitro mTOR kinase assay (TR-FRET); format: biochemical; details: 0.25 nM mTOR+GBL, 8 uM ATP; values tied to compounds by order of Table 1; 'x or y' = two alternative values for separated diastereomers of unassigned stereochemistry; read-out: activity level (Ki) in the mTOR kinase assay
# Sequence of mTOR enzyme (mTOR(1360-2549)+GBL) (P42345 1360-2549, species assumed): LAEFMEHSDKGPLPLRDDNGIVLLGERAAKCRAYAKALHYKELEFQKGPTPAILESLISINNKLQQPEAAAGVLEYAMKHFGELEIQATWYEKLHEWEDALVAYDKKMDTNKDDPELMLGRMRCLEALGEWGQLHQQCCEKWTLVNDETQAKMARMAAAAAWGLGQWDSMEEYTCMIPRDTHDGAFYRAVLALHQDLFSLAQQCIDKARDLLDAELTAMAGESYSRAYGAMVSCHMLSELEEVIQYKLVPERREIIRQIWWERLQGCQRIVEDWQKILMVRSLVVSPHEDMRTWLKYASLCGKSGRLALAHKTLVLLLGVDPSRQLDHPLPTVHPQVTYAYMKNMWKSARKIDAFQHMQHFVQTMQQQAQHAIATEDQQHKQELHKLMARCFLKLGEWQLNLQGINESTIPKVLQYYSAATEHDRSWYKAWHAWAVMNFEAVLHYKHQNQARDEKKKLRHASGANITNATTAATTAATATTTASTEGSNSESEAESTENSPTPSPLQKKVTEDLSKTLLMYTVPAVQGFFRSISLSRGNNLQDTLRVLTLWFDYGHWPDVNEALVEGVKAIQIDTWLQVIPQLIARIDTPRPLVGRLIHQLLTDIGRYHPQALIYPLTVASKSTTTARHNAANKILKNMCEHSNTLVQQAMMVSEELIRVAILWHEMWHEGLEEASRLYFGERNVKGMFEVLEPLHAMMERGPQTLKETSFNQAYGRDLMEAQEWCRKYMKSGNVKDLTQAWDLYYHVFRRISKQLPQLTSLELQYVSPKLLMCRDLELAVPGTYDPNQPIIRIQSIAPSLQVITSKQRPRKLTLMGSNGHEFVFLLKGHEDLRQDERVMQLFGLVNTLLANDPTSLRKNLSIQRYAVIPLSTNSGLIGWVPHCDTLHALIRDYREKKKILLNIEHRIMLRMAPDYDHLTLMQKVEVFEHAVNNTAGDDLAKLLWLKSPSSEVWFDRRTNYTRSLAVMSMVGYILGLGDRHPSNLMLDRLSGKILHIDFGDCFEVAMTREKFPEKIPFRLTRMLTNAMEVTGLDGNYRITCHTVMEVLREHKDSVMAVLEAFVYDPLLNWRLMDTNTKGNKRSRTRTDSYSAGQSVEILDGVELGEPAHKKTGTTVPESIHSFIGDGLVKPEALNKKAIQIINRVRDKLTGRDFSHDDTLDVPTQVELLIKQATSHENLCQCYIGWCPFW
# Sequence of mTOR enzyme (mTOR(1360-2549)+GBL) (Q9BVC4 whole entry partner, species assumed): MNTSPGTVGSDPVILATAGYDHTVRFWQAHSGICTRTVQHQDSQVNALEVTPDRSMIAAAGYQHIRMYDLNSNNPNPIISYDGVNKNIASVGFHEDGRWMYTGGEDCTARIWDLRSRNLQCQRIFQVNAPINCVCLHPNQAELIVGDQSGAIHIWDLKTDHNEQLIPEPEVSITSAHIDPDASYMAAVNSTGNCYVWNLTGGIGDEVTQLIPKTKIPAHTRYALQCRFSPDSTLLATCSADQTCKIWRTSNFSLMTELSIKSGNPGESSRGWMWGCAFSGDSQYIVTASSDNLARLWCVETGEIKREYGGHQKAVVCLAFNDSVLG
# Text: a. In Vitro mTOR Kinase Assay
# The reaction is stopped by an addition of a Terbium-labeled phospho-specific antibody, e.g., Tb-labeled anti-p4E-BP1 T37/T46, (Invitrogen, product #PR8835A), EDTA, and TR-FRET buffer solution (Invitrogen, Product #PR3756B). Product formation is detected by way of time-resolved fluorescence resonance energy transfer (TR-FRET), which occurs when the phosphorylated substrate and labeled antibody are in close proximity due to phospho-specific binding. Enzymatic activity is measured as an increase in TR-FRET signal using a Perkin Elmer Envision plate reader.
# Compound activity is tested in 10 point dose curves starting at the highest final concentration of 10 uM. They are serially diluted in 100% DMSO prior to further dilution with assay buffer. […] 8 μL of solution containing 2 nM Tb-anti-p4E-BP1 antibody & 10 mM EDTA diluted TR-FRET buffer is then added and incubated for 30 minutes to stop the reaction. The plate is scanned with the Envision plate reader. Ki values are calculated in Assay Explorer using the Morrison ATP-competitive tight binding equation for Ki apparent determination.
# [2] = system: PC3 cells; experiment: In vitro cell proliferation assay; format: cell-based, human; details: Homo sapiens, PC-3, with PC3 cells; values tied to compounds by order of Table 1
# Procedure: c. In Vitro Cell Proliferation Assay Efficacy of Formula I compounds were measured by a cell proliferation assay employing the following protocol: 1. An aliquot of 20 μl of cell culture containing about 10^3 cells (PC3 or MDAMB361.1) in medium was deposited in each well of a 384-well, opaque-walled plate. 2. Control wells were prepared containing medium and without cells; Cells were allowed to settle overnight. 3. The compound was added to the experimental wells and incubated for 3 days. 4. The plates were equilibrated to room temperature for approximately 30 minutes. 5. A volume of CellTiter-Glo Reagent equal to the volume of cell culture medium present in each well was added. […] The contents were mixed for 2 minutes on an orbital shaker to induce cell lysis. 7. The plate was incubated at room temperature for 20 minutes to stabilize the luminescence signal. 8. Luminescence was recorded and reported in graphs as RLU=relative luminescence units. Alternatively, cells were seeded at optimal density in a 96 well plate and incubated for 4 days in the presence of test compound. Alamar BlueTM was subsequently added to the assay medium, and cells were incubated for 6 h before reading at 544 nm excitation, 590 nm emission. EC50 values were calculated using a sigmoidal dose response curve fit.
SMILES,Ki [1] [nM],EC50 [2] [nM]
"CC1(C)OCc2c(N3CCOCC3)nc(-c3ccc4c(N)noc4c3)nc21 [Example 116, 6-(7,7-dimethyl-4-morpholino-5,7-dihydrofuro[3,4-d]pyrimidin-2-yl)benzo[d]isoxazol-3-amine]",17,2100
"C[C@H]1COCCN1c1nc(-c2ccc(Nc3cccc(=O)[nH]3)cc2)nc2c1CCCO2 [Example 35, (S)-6-(4-(4-(3-methylmorpholino)-6,7-dihydro-5H-pyrano[2,3-d]pyrimidin-2-yl)phenylamino)pyridin-2(1H)-one]",2,236
"CC1(C)OCc2c(N3C[C@H]4CC[C@@H](C3)O4)nc(-c3cnc(N)nc3)nc21 [Example 107, 5-(4-((1R,5S)-8-oxa-3-azabicyclo[3.2.1]octan-3-yl)-7,7-dimethyl-5,7-dihydrofuro[3,4-d]pyrimidin-2-yl)pyrimidin-2-amine]",10,231
"C[C@H]1COCCN1c1nc(-c2ccc(NC(=O)NCCO)cc2)nc2c1CCC1(CC1)O2 [Example 65, (S)-1-(2-hydroxyethyl)-3-(4-(4′-(3-methylmorpholino)-5′,6′-dihydrospiro[cyclopropane-1,7′-pyrano[2,3-d]pyrimidine]-2′-yl)phenyl)urea]",0.4,19
"C[C@H]1COCCN1c1nc(-c2ccc(NC(=O)NC3COC3)cc2)nc2c1CCCO2 [Example 32, (S)-1-(4-(4-(3-methylmorpholino)-6,7-dihydro-5H-pyrano[2,3-d]pyrimidin-2-yl)phenyl)-3-(oxetan-3-yl)urea]",4,325
"C[C@H]1COCCN1c1nc(-c2ccc(NC(=O)Nc3cnn(C)c3)cc2)nc2c1CCCO2 [Example 31, (S)-1-(1-methyl-1H-pyrazol-4-yl)-3-(4-(4-(3-methylmorpholino)-6,7-dihydro-5H-pyrano[2,3-d]pyrimidin-2-yl)phenyl)urea]",2,57
"C[C@H]1COCCN1c1nc(-c2ccc(Nc3nccc(=O)[nH]3)cc2)nc2c1COC(CO)C2 (stereo partly drawn) [2-(4-(7-(hydroxymethyl)-4-((S)-3-methylmorpholino)-7,8-dihydro-5H-pyrano[4,3-d]pyrimidin-2-yl)phenylamino)pyrimidin-4(3H)-one]",4,2800
"C[C@H]1COCCN1c1nc(-c2ccc(Nc3nccc(=O)[nH]3)cc2)nc2c1CCC1(CC1)O2 [Example 55, (S)-2-(4-(4′-(3-methylmorpholino)-5′,6′-dihydrospiro[cyclopropane-1,7′-pyrano[2,3-d]pyrimidine]-2′-yl)phenylamino)pyrimidin-4(3H)-one]",0.2,15
"CCNC(=O)Nc1ccc(-c2nc3c(c(N4[C@@H]5CC[C@H]4COC5)n2)COC3)cc1 [Example 98, 1-(4-(4-((1R,5S)-3-oxa-8-azabicyclo[3.2.1]octan-8-yl)-5,7-dihydrofuro[3,4-d]pyrimidin-2-yl)phenyl)-3-ethylurea]",8,331
"Nc1ccc(-c2nc3c(c(N4C[C@H]5CC[C@@H](C4)O5)n2)CCCO3)cn1 [Example 130, 5-(4-((1R,5S)-8-oxa-3-azabicyclo[3.2.1]octan-3-yl)-6,7-dihydro-5H-pyrano[2,3-d]pyrimidin-2-yl)pyridin-2-amine]",30,743
"Cn1ccc(NC(=O)Nc2ccc(-c3nc4c(c(N5CCOCC5)n3)CCC3(CC3)O4)cc2)n1 [Example 44, 1-(1-methyl-1H-pyrazol-3-yl)-3-(4-(4′-morpholino-5′,6′-dihydrospiro[cyclopropane-1,7′-pyrano[2,3-d]pyrimidine]-2′-yl)phenyl)urea]",2,329
"C[C@H]1COCCN1c1nc(-c2ccc3c(N)noc3c2)nc2c1COC2(C)C [Example 120, (S)-6-(7,7-dimethyl-4-(3-methylmorpholino)-5,7-dihydrofuro[3,4-d]pyrimidin-2-yl)benzo[d]isoxazol-3-amine]",24,39
"CC1(C)OCc2c(N3CCOCC3)nc(-c3ccc(N)nc3)nc21 [Example 102, 5-(7,7-dimethyl-4-morpholino-5,7-dihydrofuro[3,4-d]pyrimidin-2-yl)pyridin-2-amine]",17,159
"O=c1ccnc(Nc2ccc(-c3nc4c(c(N5CCOCC5)n3)CCC3(CC3)O4)cc2)[nH]1 [Example 42, 2-(4-(4′-morpholino-5′,6′-dihydrospiro[cyclopropane-1,7′-pyrano[2,3-d]pyrimidine]-2′-yl)phenylamino)pyrimidin-4(3H)-one]",1,56
"CC1(C)OCc2c(N3CCOCC3)nc(-c3ccc4onc(N)c4c3)nc21 [Example 117, 5-(7,7-dimethyl-4-morpholino-5,7-dihydrofuro[3,4-d]pyrimidin-2-yl)benzo[d]isoxazol-3-amine]",567,1200
"C[C@H]1COCCN1c1nc(-c2ccc(NC(=O)Nc3ccn(C)n3)cc2)nc2c1CCC1(CC1)O2 [Example 52, (S)-1-(1-methyl-1H-pyrazol-3-yl)-3-(4-(4′-(3-methylmorpholino)-5′,6′-dihydrospiro[cyclopropane-1,7′-pyrano[2,3-d]pyrimidine]-2′-yl)phenyl)urea]",1,172
"CCNC(=O)Nc1ccc(-c2nc(N3CCOC[C@@H]3C)c3c(n2)[C@@](C)(CC(C)O)OC3)cc1 (stereo partly drawn) [1-ethyl-3-(4-((7R)-7-(2-hydroxypropyl)-7-methyl-4-((S)-3-methylmorpholino)-5,7-dihydrofuro[3,4-d]pyrimidin-2-yl)phenyl)urea]",2,39
"C[C@H]1COCCN1c1nc(-c2ccc(NC(=O)NC[C@H](O)CO)cc2)nc2c1CCC1(CC1)O2 [Example 68, 1-((S)-2,3-dihydroxypropyl)-3-(4-(4′-((S)-3-methylmorpholino)-5′,6′-dihydrospiro[cyclopropane-1,7′-pyrano[2,3-d]pyrimidine]-2′-yl)phenyl)urea]",3,804
"O=C(NCCO)Nc1ccc(-c2nc3c(c(N4[C@@H]5CC[C@H]4COC5)n2)CCC2(CC2)O3)cc1 [Example 72, 1-(4-(4′-((1R,5S)-3-oxa-8-azabicyclo[3.2.1]octan-8-yl)-5′,6′-dihydrospiro[cyclopropane-1,7′-pyrano[2,3-d]pyrimidine]-2′-yl)phenyl)-3-(2-hydroxyethyl)urea]",1,173
"C[C@H]1COCCN1c1nc(-c2cnc(N)nc2)nc2c1CO[C@@]2(C)CCOc1ccccc1 [Example 104 gs (S), 5-((S)-7-methyl-4-((S)-3-methylmorpholino)-7-(2-phenoxyethyl)-5,7-dihydrofuro[3,4-d]pyrimidin-2-yl)pyrimidin-2-amine]",231,145
"CCNC(=O)Nc1ccc(-c2nc(N3CCOC[C@@H]3C)c3c(n2)[C@](C)(CCN2CCC2)OC3)cc1 [Example 79 er (S), 1-(4-((S)-7-(2-(azetidin-1-yl)ethyl)-7-methyl-4-((S)-3-methylmorpholino)-5,7-dihydrofuro[3,4-d]pyrimidin-2-yl)phenyl)-3-ethylurea]",31,774
"C=CC[C@]1(C)OCc2c(N3CCOCC3)nc(-c3ccc(NC(=O)NCC)cc3)nc21 [Example 73 eb (S), (S)-1-(4-(7-allyl-7-methyl-4-morpholino-5,7-dihydrofuro[3,4-d]pyrimidin-2-yl)phenyl)-3-ethylurea]",2,37.6
"CCNC(=O)Nc1ccc(-c2nc(N3CCOC[C@@H]3C)c3c(n2)[C@](C)(CCN2CCOCC2)OC3)cc1 [Example 76 eo (S), 1-ethyl-3-(4-((S)-7-methyl-4-((S)-3-methylmorpholino)-7-(2-morpholinoethyl)-5,7-dihydrofuro[3,4-d]pyrimidin-2-yl)phenyl)urea]",293,45
"CCNC(=O)Nc1ccc(-c2nc3c(c(N4CCOC[C@@H]4C)n2)CCC2(CC2)O3)cc1 [Example 49, (S)-1-ethyl-3-(4-(4′-(3-methylmorpholino)-5′,6′-dihydrospiro[cyclopropane-1,7′-pyrano[2,3-d]pyrimidine]-2′-yl)phenyl)urea]",0.3,67
"C[C@H]1COCCN1c1nc(-c2cnc(N)nc2)nc2c1COC2(C)C [Example 103, (S)-5-(7,7-dimethyl-4-(3-methylmorpholino)-5,7-dihydrofuro[3,4-d]pyrimidin-2-yl)pyrimidin-2-amine]",15,41
